Results as given in PubChem BioAssay (NCI).
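All cell lines were grown in 96-well plates and treated with compound for 48 hours. GI50 marks 50% less growth. TGI denotes the concentration required for complete inhibition of growth.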

How the values were obtained:
Assay in all cases: NCI tumour cell line growth inhibition, 48 h
T-47D breast = test system: T-47D breast
DU-145 prostate = test system: DU-145 prostate
UACC-257 melanoma = test system: UACC-257 melanoma
SF-295 CNS = test system: SF-295 CNS
TK-10 renal = test system: TK-10 renal
MALME-3M melanoma = test system: MALME-3M melanoma
SK-OV-3 ovarian = test system: SK-OV-3 ovarian
NCI-H226 lung = test system: NCI-H226 lung
786-0 renal = test system: 786-0 renal
OVCAR-4 ovarian = test system: OVCAR-4 ovarian

Row | Structure (SMILES) | GI50 (T-47D breast) [µM] | TGI (T-47D breast) [µM] | GI50 (DU-145 prostate) [µM] | TGI (DU-145 prostate) [µM] | GI50 (UACC-257 melanoma) [µM] | TGI (UACC-257 melanoma) [µM] | GI50 (SF-295 CNS) [µM] | TGI (SF-295 CNS) [µM] | GI50 (TK-10 renal) [µM] | TGI (TK-10 renal) [µM] | GI50 (MALME-3M melanoma) [µM] | TGI (MALME-3M melanoma) [µM] | GI50 (SK-OV-3 ovarian) [µM] | TGI (SK-OV-3 ovarian) [µM] | GI50 (NCI-H226 lung) [µM] | TGI (NCI-H226 lung) [µM] | GI50 (786-0 renal) [µM] | TGI (786-0 renal) [µM] | GI50 (OVCAR-4 ovarian) [µM] | TGI (OVCAR-4 ovarian) [µM]
1 | COc1ccc(-c2nn(-c3cccc(NC(=O)Nc4cccc(C(F)(F)F)c4)c3)cc2-c2ccncc2)cc1Cl | 1.17 | 7.69 | 3.56 | > 100 | 2.28 | 10.8 | 1.69 | 7.32 | 4.1 | > 100 | 2.07 | 8.72 | 3.58 | > 100 | 2.14 | 9.43 | 2.28 | 10.1 |  | 
2 | Clc1ccc(-c2cn(-c3ccccc3)c(-c3ccccc3)n2)c(Cl)c1 | 2.52 | > 50 | 0.892 | 2.09 | > 22.8 | > 50 | 1.45 | 4.68 | 1.14 | 2.17 | 1.32 | 6.92 | 5.15 | > 35.7 | > 26 | > 50 | 1.14 | 2.56 | 0.884 | 1.81
3 | CC(C)[C@@H](CS(=O)(=O)C(C)C)N1C(=O)[C@@](C)(CC(=O)O)C[C@H](c2cccc(Cl)c2)[C@H]1c1ccc(Cl)cc1 | 7.91 | > 92 | 21.8 | > 100 | 0.381 | 6.82 | 9.09 | 33.2 | 28.2 | 97 | 0.178 | 6.91 | 19.2 | 73.2 | 0.193 | 0.422 | 20.8 | 75.2 | 7.45 | > 75.9
4 | COc1cc2c3c(n(C)c(=O)c2cc1OC)-c1cc2c(cc1/C3=C\[C@@H](N)CCCCN)OCO2 | 13 | > 100 | 0.717 | 37 | 5.24 | > 52.8 | 4.3 | > 100 | 7.12 | > 75 | 1.84 | 13.3 | > 26.2 | > 100 | 1.48 | 18.4 | 2.06 | > 100 | 1.26 | 99
5 | CCC(C)CC(CC)NCCN1CCN(C(CC)CC(C)CC)C1=S (stereo not drawn) | 1.72 | 3.57 | 2.17 | 4.71 | 1.65 | 3.1 | 1.86 | 3.68 | 3.16 | 11 | 1.74 | 3.19 | 1.86 | 3.36 | 1.85 | 4.02 | 1.83 | 3.3 | 1.59 | 3.91
6 | CC(=O)OC1=C2C(CC3C4CC=C5CC(OC(C)=O)CCC5(C)C4CCC23C)C2C(=O)N(Cc3ccccc3)C(=O)C2C1 (stereo not drawn) | 3.12 | 20.1 | 32.8 | > 100 | 10.9 | > 100 | 10.8 | > 100 | 47.4 | > 100 | 10.5 | > 100 | 17.7 | > 100 | 8.16 | > 100 | 20.5 | > 100 | 2.33 | 9.27
7 | COC(=O)c1cc2c(cc1Cl)SC(N(N(C)C)S(=O)(=O)c1ccc(Cl)cc1)=NS2(=O)=O | 8.42 | 26.7 | 13.7 | 26.6 |  |  | 18 | 51.2 | 19.2 | 53.3 | 13.8 | 40 | 17.9 | 49.2 | 19.8 | 62 | 31.3 | > 100 | 18.1 | 54.8
8 | COc1ccc(C(=O)N/N=C/c2ccc(O)cc2O)cc1Nc1ccnc(C(F)(F)F)c1 | 0.688 | 15 | 0.622 | 15.2 | 1.69 | 16.9 | 1.07 | 20.6 | 0.994 | 58.6 | 0.891 | > 26.7 | 0.725 | 18.8 | 1.39 | 11.6 | 0.998 | 9.62 | 0.27 | 
9 | CN1c2ccccc2C(C)(C)C12CC(c1ccc(Cl)c(S(=O)(=O)N3CCCC3)c1)=NO2 (stereo not drawn) | > 100 | > 100 | > 100 | > 100 | > 100 | > 100 | > 100 | > 100 | > 100 | > 100 | > 100 | > 100 | > 100 | > 100 | > 100 | > 100 | > 100 | > 100 | > 100 | > 100
10 | Nc1nc(Nc2ccc3c(c2)CCC(N2CCCC2)CC3)nn1-c1cc2c(nn1)-c1ccccc1CCC2 (stereo not drawn) | 1.75 | 3.95 | 1.04 | 2.36 | 1.7 | 3.36 | 1.85 | 3.54 | 1.14 | 2.61 | 1.42 | 3.09 | 0.895 | 2.22 |  |  | 1.1 | 2.49 | 1.15 | 2.56
11 | NCC(=O)CCC(=O)O | > 100 | > 100 | > 100 | > 100 | > 100 | > 100 | > 100 | > 100 | > 100 | > 100 | > 100 | > 100 | > 100 | > 100 | > 100 | > 100 | > 100 | > 100 | > 100 | > 100
12 | CC(C)(C)n1cc(-c2ccnc(NCCNS(=O)(=O)c3cccc4ccccc34)c2)c(-c2cccc(F)c2)n1 | 4.22 | 47.8 | 26.7 | > 100 | 25 | 86.7 | 22.3 | 57.3 | 18.3 | 40.5 | 15.3 | 36.8 | 26 | > 100 | 12.2 | 43.4 | 2.44 | 6.75 | 14.6 | 53.7
